# Results: ChEMBL document CHEMBL3046227, “Synthesis and evaluation in vitro of 1-[2-(10-dihydroartemisininoxy) ethyl]-3-phenylurea derivatives as potential agents against cancer” (Med Chem Res, 2013)
# Columns and labels:
# [1] = system: HCT-116; test: Ratio of dihydroartemisinin IC50 to compound IC50 for Homo sapiens (human) HCT116 cells; format: functional
# [2] = system: MCF7; test: Ratio of dihydroartemisinin IC50 to compound IC50 for Homo sapiens (human) MCF7 cells; format: functional
# [3] = system: MCF7; test: Cytotoxicity against Homo sapiens (human) MCF7 cells after 48 hr by MTT assay; format: functional, cell-based; details: MCF7, 48 h
# [4] = Cytotoxicity against Homo sapiens (human) A375-S2 cells after 48 hr by MTT assay; format: functional, cell-based; details: A375-S2, 48 h
# [5] = system: HepG2; test: Cytotoxicity against Homo sapiens (human) HepG2 cells after 48 hr by MTT assay; format: functional, cell-based; details: HepG2, 48 h
# [6] = system: HL-60; test: Cytotoxicity against Homo sapiens (human) HL60 cells after 48 hr by MTT assay; format: functional, cell-based; details: HL-60, 48 h
# [7] = system: HeLa; test: Cytotoxicity against Homo sapiens (human) HeLa cells after 48 hr by MTT assay; format: functional, cell-based
# [8] = system: A549; test: Ratio of dihydroartemisinin IC50 to compound IC50 for Homo sapiens (human) A549 cells; format: functional
# [9] = system: HCT-116; test: Cytotoxicity against Homo sapiens (human) HCT116 cells after 48 hr by MTT assay; format: functional, cell-based; details: HCT-116, 48 h
# [10] = system: U-937; test: Cytotoxicity against Homo sapiens (human) U937 cells after 48 hr by MTT assay; format: functional, cell-based; details: U-937, 48 h
# [11] = system: K562; test: Cytotoxicity against Homo sapiens (human) K562 cells after 48 hr by MTT assay; format: functional, cell-based; details: K562, 48 h
# [12] = system: HT-1080; test: Cytotoxicity against Homo sapiens (human) HT1080 cells after 48 hr by MTT assay; format: functional, cell-based; details: HT-1080, 48 h
# [13] = system: A549; test: Cytotoxicity against Homo sapiens (human) A549 cells after 48 hr by MTT assay; format: functional, cell-based; details: A549, 48 h
Structure (SMILES),Ratio IC50 [1],Ratio IC50 [2],IC50 [3] [µM],IC50 [4] [µM],IC50 [5] [µM],IC50 [6] [µM],IC50 [7] [µM],Ratio IC50 [8],IC50 [9] [µM],IC50 [10] [µM],IC50 [11] [µM],IC50 [12] [µM],IC50 [13] [µM]
C[C@H]1[C@@H](OCCNC(=O)Nc2ccc(C(F)(F)F)cc2)O[C@@H]2O[C@@]3(C)CC[C@H]4[C@H](C)CC[C@@H]1[C@@]24OO3,1.7,4,11.6,> 100,11.2,< 1,16.6,1.2,31.3,1.1,6.97,> 100,29.5
Cc1ccccc1NC(=O)NCCO[C@H]1O[C@@H]2O[C@@]3(C)CC[C@H]4[C@H](C)CC[C@@H]([C@H]1C)[C@@]24OO3,1.7,,88.9,> 100,53.2,2.11,64.7,1.2,53.8,16.2,29.4,> 100,41.7
C[C@H]1[C@@H](OCCNC(=O)Nc2ccc(F)cc2)O[C@@H]2O[C@@]3(C)CC[C@H]4[C@H](C)CC[C@@H]1[C@@]24OO3,1.7,,46.8,33.7,26.2,3.64,35.2,1.2,43.7,25.2,38.4,26.8,43.7
C[C@H]1[C@H](OCCNC(=O)Nc2ccc(Br)cc2)O[C@@H]2O[C@@]3(C)CC[C@H]4[C@H](C)CC[C@@H]1[C@@]24OO3,1.7,,25.9,23.9,24.3,< 1,23.9,1.2,35,< 1,34.6,35.2,39.4
C[C@H]1[C@@H](OCCNC(=O)Nc2ccc(Cl)cc2)O[C@@H]2O[C@@]3(C)CC[C@H]4[C@H](C)CC[C@@H]1[C@@]24OO3,1.7,,32.8,41,36.3,< 1,20.6,1.2,39.5,9.99,32.5,43.9,42
Cc1c(Cl)cccc1NC(=O)NCCO[C@H]1O[C@@H]2O[C@@]3(C)CC[C@H]4[C@H](C)CC[C@@H]([C@H]1C)[C@@]24OO3,1.7,,36.8,> 100,40.6,< 1,25.7,1.2,22.7,2.59,9.45,> 100,26.2
Cc1ccc(C)c(NC(=O)NCCO[C@H]2O[C@@H]3O[C@@]4(C)CC[C@H]5[C@H](C)CC[C@@H]([C@H]2C)[C@@]35OO4)c1,1.7,,42.2,> 100,23.2,< 1,31,1.2,47.5,2.51,23,> 100,33.7
C[C@H]1[C@H](OCCNC(=O)Nc2ccc(Cl)cc2)O[C@@H]2O[C@@]3(C)CC[C@H]4[C@H](C)CC[C@@H]1[C@@]24OO3,1.7,,25.9,9.25,16.6,< 1,19.7,1.2,37.8,2.6,37.9,40.3,35.5
C[C@H]1[C@@H](OCCNC(=O)Nc2ccc(Br)cc2)O[C@@H]2O[C@@]3(C)CC[C@H]4[C@H](C)CC[C@@H]1[C@@]24OO3,1.7,,25.6,> 100,23.2,< 1,18.2,1.2,26.7,5.2,27.6,> 100,34.2
C[C@H]1[C@H](OCCNC(=O)Nc2ccc([N+](=O)[O-])cc2)O[C@@H]2O[C@@]3(C)CC[C@H]4[C@H](C)CC[C@@H]1[C@@]24OO3,1.7,,94.7,> 100,34.3,< 1,64.2,1.2,41,9.26,> 100,> 100,49.6
C[C@H]1[C@@H](OCCNC(=O)Nc2ccccc2)O[C@@H]2O[C@@]3(C)CC[C@H]4[C@H](C)CC[C@@H]1[C@@]24OO3,1.7,,43.7,> 100,34,3,25.1,1.2,53.8,6.06,25,> 100,63.3
C[C@H]1[C@@H](O)O[C@@H]2O[C@@]3(C)CC[C@H]4[C@H](C)CC[C@@H]1[C@@]24OO3 [ARTENIMOL],,,50.2,5.48,30.1,< 1,8.85,,95.4,< 1,9.81,49.1,76.2
C[C@H]1[C@@H](OCCNC(=O)Nc2ccc([N+](=O)[O-])cc2)O[C@@H]2O[C@@]3(C)CC[C@H]4[C@H](C)CC[C@@H]1[C@@]24OO3,1.7,,42.2,35.9,39.6,1.2,23,1.2,44.4,7.75,32.1,29.8,53
C[C@H]1[C@H](OCCNC(=O)Nc2ccc(C(F)(F)F)cc2)O[C@@H]2O[C@@]3(C)CC[C@H]4[C@H](C)CC[C@@H]1[C@@]24OO3,1.7,,> 100,> 100,11.7,< 1,31.7,1.2,46.4,< 1,26.1,> 100,37.1
COc1ccc(NC(=O)NCCO[C@H]2O[C@@H]3O[C@@]4(C)CC[C@H]5[C@H](C)CC[C@@H]([C@H]2C)[C@@]35OO4)cc1,1.7,,> 100,> 100,46.2,2.53,61.5,1.2,50.7,23.7,55.8,> 100,63.2
